From PMC9605374 (Marine Drugs, 2022)

Experiments:
22Rv1 = system: 22Rv1; set-up: method as in PMID 27355960; details: cited from earlier work
PC3-DR cells = assay: Drug combination study NB with docetaxel, MTT assay, SynergyFinder 2.0; format: cell-based; details: Homo sapiens, 24 h
Description: Thus, drug-resistant PC3-DR cells were treated with docetaxel in combination with NB (Figure 9). Potential synergism between NB and docetaxel was measured by the Chou–Talalay method as described before.
Figure 9 Combinational treatment on PC3-DR cells with NB and docetaxel. […] MTT assay was used to examine cellular viability. Number of replicates n = 3. (A) The heatmap represents cytotoxicity (viability inhibition) of the individual drugs or their combinations. (B,C) To calculate and visualize in 2D (B) or 3D (C) the effect of the drug combination (synergism/additive effect/antagonism), the SynergyFinder v. 2.0 software (Network Pharmacology for Precision Medicine in the Research Program of System Oncology, Faculty of Medicine at University of Helsinki, Helsinki, Finland) and a ZIP reference model were used. Green regions indicate antagonism, white regions refer to additive effect, and red regions indicate synergism.
The experiments were carried out as previously reported. […] 22Rv1 cells (6 × 10^3 cells/well in 96-well plates) were simultaneously treated with NB and docetaxel; or pretreated with MAPK inhibitors for 1 h following treatment with NB in the total media volume of 100 µL/well. Following 24 h of incubation, the viability of the cells treated with individual drugs as well as their combinations was determined using MTT assay. […] Red areas (positive δ-values) and green areas (negative δ-values) indicate synergism and antagonism, respectively.

**Q.** Which IC50 (22Rv1) does the source give for COc1ccc(C2SSC34CC5(O)C(Cl)C=CC(O)C5ON3C(=O)C2N(C)C4=O)c(O)c1OC (centres unmarked) [NB, N-methylpretrichodermamide B] here?
**A.** 0.51 µM

**Q.** What about the inhibition at 0.22 µM (PC3-DR cells) of the same compound?
**A.** 9.85%

**Q.** And the inhibition at 0.67 µM (PC3-DR cells)?
**A.** 15.5%

**Q.** And the inhibition at 2 µM (PC3-DR cells)?
**A.** 14.3%

**Q.** And the inhibition at 6 µM (PC3-DR cells)?
**A.** 17.2%
